Results as given in patent US10155754B2, “Substituted 2-imino-1,3-thiazolidin-4-ones as N-arachidonoylethanolamine cellular uptake inhibitors” (UNIVERSITAT BERN, priority 2014, dated 2018).
pIC50: −log10 of the molar value.

Each molecule was assayed on AEA cellular uptake (U937 cells) (assay: [3H]-AEA cellular uptake inhibition in U937 cells). Details: Homo sapiens, U-937, U937 cells, final 100 nM AEA with 0.5 nM [3H]-AEA, 15 min at 37° C.; read-out: AEA uptake IC50.
Type: cell-based
Method: [^3H]-AEA Cellular Uptake
Screening for AEA cellular uptake inhibition was performed in a semi-automated procedure: Pipetting and washing steps were performed by a Biomek3000 laboratory workstation. First, required amounts of U937 cells were centrifuged at 100×g for 5 min and resuspended in RPMI (37° C.) to a final concentration of 2×10^6 cells/mL. Then, 250 μL of cell suspension (0.5×10^6 cells per sample) were transferred into AquaSil™ silanized glass vials (Chromacol 1.1-MTV) in 96-well format. After addition of 5 μL vehicle (DMSO) or compounds the cells were incubated at 37° C. for 15 min. As positive controls OMDM-2 and UCM707 were used at 10 μM in each run. The ETI-T compounds were measured at up to 7 concentrations in triplicates from 100 pM-100 μM. After pre-incubation, a mixture of 0.5 nM [ethanolamine-1-^3H]-AEA, (60 Ci/mmol) and 99.5 nM of cold AEA (final 100 nM) was added and samples were incubated at 37° C. for another 15 min. The reaction was stopped by rapid filtration over UniFilter-96 GF/C filters (PerkinElmer) pre-soaked with PBS 0.25% BSA. Cells were washed three times with 100 μL ice-cold PBS buffer containing 1% fatty acid free BSA. After drying, 45 μL MicroScint 20 scintillation cocktail (PerkinElmer, Waltham, Mass., US) was added to the wells and the plate was sealed. Radioactivity was measured by liquid scintillation counting on a PerkinElmer Wallac Trilux MicroBeta 1450 during 2 min. Non-specific binding of [^3H]AEA (100 nM) to the glass vials was never higher than 10%. IC50 values were calculated by GraphPad® by non-linear regression using the built-in log(inhibitor) vs. response-variable slope (four parameters) function.
With O=C1/C(=C/c2ccc3[nH]cnc3c2)S/C(=N\CCc2ccccc2)N1c1ccccc1 [04_U_N, (2Z,5Z)-5-((1H-benzo[d]imidazol-5-yl)methylene)-2-(phenethylimino)-3-phenylthiazolidin-4-one] the pIC50 was 5.85.
Work on COCc1cccc(/C=C2\S/C(=N\Cc3ccccc3)N(CCCc3ccccc3)C2=O)c1 [15_C_K, (2Z,5Z)-5-(3-(methoxymethyl)benzylidene)-2-(benzylimino)-3-(3-phenylpropyl)thiazolidin-4-one] yielded a pIC50 of 6.16.
O=C1/C(=C/c2ccc(CO)cc2)S/C(=N\Cc2ccccc2)N1CCc1ccccc1 [15_C_O, (2Z,5Z)-5-(4-(hydroxymethyl)benzylidene)-2-(benzylimino)-3-phenethylthiazolidin-4-one] gave a pIC50 of 5.81.
COCc1cccc(/C=C2\S/C(=N\Cc3ccc(C(C)(C)C)cc3)N(c3ccccc3)C2=O)c1 [15_R_N, (2Z,5Z)-5-(3-(methoxymethyl)benzylidene)-2-(4-tert-butylbenzylimino)-3-phenylthiazolidin-4-one] was tested, and the pIC50 was less than 5.00.
Work on COCc1cccc(/C=C2\S/C(=N\Cc3ccccc3Cl)N(c3ccccc3)C2=O)c1 [15_T_N, (2Z,5Z)-2-(2-chlorobenzylimino)-5-(3-(methoxymethyl)benzylidene)-3-phenylthiazolidin-4-one] yielded a pIC50 of 5.58.
COCc1cccc(/C=C2\S/C(=N\CCc3ccccc3)N(c3ccccc3)C2=O)c1 [15_U_N, (2Z,5Z)-5-(3-(methoxymethyl)benzylidene)-2-(phenethylimino)-3-phenylthiazolidin-4-one] was tested, and the pIC50 was 4.81.
Molecule CCCCCCCCCCCCN1C(=O)/C(=C/c2ccc(CO)cc2)S/C1=N\c1ccc(F)cc1 [22_B_V, (2Z,5Z)-5-(4-(hydroxymethyl)benzylidene)-2-(4-fluorophenylimino)-3-dodecylthiazolidin-4-one] has a pIC50 of 4.90.
O=C1/C(=C/c2ccc(CO)cc2)S/C(=N\Cc2ccccc2)N1c1ccc(F)cc1 [22_C_B, (2Z,5Z)-5-(4-(hydroxymethyl)benzylidene)-2-(benzylimino)-3-(4-fluorophenyl)thiazolidin-4-one] showed a pIC50 of 5.66.
O=C1/C(=C/c2ccc(CO)cc2)S/C(=N\Cc2ccccc2)N1Cc1ccccc1 [22_C_C, (2Z,5Z)-5-(4-(hydroxymethyl)benzylidene)-3-benzyl-2-(benzylimino)thiazolidin-4-one] showed a pIC50 of 4.98.
Work on COc1ccc(N2C(=O)/C(=C/c3ccc(CO)cc3)S/C2=N\Cc2ccccc2)cc1 [22_C_F, (2Z,5Z)-5-(4-(hydroxymethyl)benzylidene)-2-(benzylimino)-3-(4-methoxyphenyl)thiazolidin-4-one] yielded a pIC50 of 6.23.
For CCCCN1C(=O)/C(=C/c2ccc(CO)cc2)S/C1=N\Cc1ccccc1 [22_C_G, (2Z,5Z)-5-(4-(hydroxymethyl)benzylidene)-2-(benzylimino)-3-butylthiazolidin-4-one], the pIC50 was 5.89.
O=C1/C(=C/c2ccc(CO)cc2)S/C(=N\Cc2ccccc2)N1c1ccccc1 [22_C_N, (2Z,5Z)-5-(4-(hydroxymethyl)benzylidene)-2-(benzylimino)-3-phenylthiazolidin-4-one] showed a pIC50 of 5.78.
Cc1ccc(/N=C2\S/C(=C\c3ccc(CO)cc3)C(=O)N2c2ccccc2)nc1 [22_D_N, (2Z,5Z)-5-(4-(hydroxymethyl)benzylidene)-2-(5-methylpyridin-2-ylimino)-3-phenylthiazolidin-4-one] showed a pIC50 of 5.84.
For C/N=C1\S/C(=C\c2ccc(CO)cc2)C(=O)N1c1ccccc1 [22_E_N, (2Z,5Z)-5-(4-(hydroxymethyl)benzylidene)-2-(methylimino)-3-phenylthiazolidin-4-one], the pIC50 was less than 5.00.
In the case of O=C1/C(=C/c2ccc(CO)cc2)S/C(=N\c2ccccc2)N1Cc1ccccc1 [22_N_C, (2Z,5Z)-5-(4-(hydroxymethyl)benzylidene)-3-benzyl-2-(phenylimino)thiazolidin-4-one], the pIC50 was 6.18.
Work on COc1ccc(N2C(=O)/C(=C/c3ccc(CO)cc3)S/C2=N\c2ccccc2)cc1 [22_N_F, (2Z,5Z)-5-(4-(hydroxymethyl)benzylidene)-3-(4-methoxyphenyl)-2-(phenylimino)thiazolidin-4-one] yielded a pIC50 of less than 5.00.
CCCCN1C(=O)/C(=C/c2ccc(CO)cc2)S/C1=N\c1ccccc1 [22_N_G, (2Z,5Z)-5-(4-(hydroxymethyl)benzylidene)-3-butyl-2-(phenylimino)thiazolidin-4-one] was tested, and the pIC50 was 5.96.
Work on O=C1/C(=C/c2ccc(CO)cc2)S/C(=N\c2ccccc2)N1Cc1ccco1 [22_N_M, (2Z,5Z)-5-(4-(hydroxymethyl)benzylidene)-3-((furan-2-yl)methyl)-2-(phenylimino)thiazolidin-4-one] yielded a pIC50 of 5.88.
Molecule O=C1/C(=C/c2ccc(CO)cc2)S/C(=N\Cc2ccc(F)cc2)N1c1ccccc1 [22_P_N, (2Z,5Z)-5-(4-(hydroxymethyl)benzylidene)-2-(4-fluorobenzylimino)-3-phenylthiazolidin-4-one] has a pIC50 of 6.30.
COc1ccc(C/N=C2\S/C(=C\c3ccc(CO)cc3)C(=O)N2c2ccccc2)cc1 [22_Q_N, (2Z,5Z)-5-(4-(hydroxymethyl)benzylidene)-2-(4-methoxybenzylimino)-3-phenylthiazolidin-4-one] gave a pIC50 of 6.15.
In the case of CC(C)(C)c1ccc(C/N=C2\S/C(=C\c3ccc(CO)cc3)C(=O)N2c2ccccc2)cc1 [22_R_N, (2Z,5Z)-5-(4-(hydroxymethyl)benzylidene)-2-(4-tert-butylbenzylimino)-3-phenylthiazolidin-4-one], the pIC50 was 5.29.
O=C1/C(=C/c2ccc(CO)cc2)S/C(=N\Cc2ccccc2Cl)N1c1ccccc1 [22_T_N, (2Z,5Z)-2-(2-chlorobenzylimino)-5-(4-(hydroxymethyl)benzylidene)-3-phenylthiazolidin-4-one] gave a pIC50 of less than 5.00.
With O=C1/C(=C/c2ccc(CO)cc2)S/C(=N\CCc2ccccc2)N1c1ccccc1 [22_U_N, (2Z,5Z)-5-(4-(hydroxymethyl)benzylidene)-2-(phenethylimino)-3-phenylthiazolidin-4-one] the pIC50 was 6.09.
With CC(C)CN1C(=O)/C(=C/c2ccccc2)S/C1=N\c1ccc(F)cc1 [23_B_X, (2Z,5Z)-2-(4-fluorophenylimino)-5-benzylidene-3-isobutylthiazolidin-4-one] the pIC50 was 5.95.
CCCCN1C(=O)/C(=C/c2ccccc2)S/C1=N\Cc1ccccc1 [23_C_G, (2Z,5Z)-5-benzylidene-2-(benzylimino)-3-butylthiazolidin-4-one] showed a pIC50 of 6.12.
O=C1/C(=C/c2ccccc2)S/C(=N\Cc2ccccc2)N1CCc1ccccc1 [23_C_O, (2Z,5Z)-5-benzylidene-2-(benzylimino)-3-phenethylthiazolidin-4-one] was tested, and the pIC50 was 5.92.
With O=C1/C(=C/c2ccccc2)S/C(=N\c2ccccc2)N1CCCc1ccccc1 [23_N_K, (2Z,5Z)-5-benzylidene-2-(phenylimino)-3-(3-phenylpropyl)thiazolidin-4-one] the pIC50 was 5.95.
In the case of COc1ccc(C/N=C2\S/C(=C\c3ccccc3)C(=O)N2c2ccccc2)cc1 [23_Q_N, (2Z,5Z)-2-(4-methoxybenzylimino)-5-benzylidene-3-phenylthiazolidin-4-one], the pIC50 was 6.22.
In the case of O=C1/C(=C/c2ccccc2)S/C(=N\Cc2ccccc2Cl)N1c1ccccc1 [23_T_N, (2Z,5Z)-2-(2-chlorobenzylimino)-5-benzylidene-3-phenylthiazolidin-4-one], the pIC50 was 6.25.
Cc1ccc(/N=C2\S/C(=C\c3ccc4c(c3)OCCO4)C(=O)N2c2ccc(F)cc2)cc1 [24_A_B, (2Z,5Z)-5-(2,3-dihydro-1,4-benzodioxin-6-ylmethylene)-3-(4-fluorophenyl)-2-(p-tolylimino)thiazolidin-4-one] showed a pIC50 of 6.86.

Same assay, conditions: U937 cells, final 100 nM AEA with 0.5 nM [3H]-AEA, 15 min at 37° C.; read-out: AEA uptake IC50
COCc1cccc(/C=C2\S/C(=N\Cc3ccccc3)N(c3ccccc3)C2=O)c1 [15_C_N, (2Z,5Z)-5-(3-(methoxymethyl)benzylidene)-2-(benzylimino)-3-phenylthiazolidin-4-] was tested, and the pIC50 was 5.77.
Molecule O=C1/C(=C/c2ccc(CO)cc2)S/C(=N\Cc2ccccc2)N1CCCc1ccccc1 [22_C_K, (2Z,5Z)-5-(4-(hydroxymethyl)benzylidene)-2-(benzylimino)-3-(3-phenylpropyl)thiazolidin-4-] has a pIC50 of 5.84.
With O=C1/C(=C/c2ccc(CO)cc2)S/C(=N\Cc2ccccc2)N1CCc1ccccc1 [22_C_O, (2Z,5Z)-5-(4-(hydroxymethyl)benzylidene)-2-(benzylimino)-3-phenethylthiazolidin-4-] the pIC50 was 5.92.
O=C1/C(=C/c2ccc(CO)cc2)S/C(=N\c2ccccc2)N1CCCc1ccccc1 [22_N_K, (2Z,5Z)-5-(4-(hydroxymethyl)benzylidene)-2-(phenylimino)-3-(3-phenylpropyl)thiazolidin-4-] gave a pIC50 of 6.06.
In the case of CCCCCCCCCCCCN1C(=O)/C(=C/c2ccc(CO)cc2)S/C1=N\c1ccc(F)cc1 [23_A_V, (2Z,5Z)-5-(4-(hydroxymethyl)benzylidene)-2-(4-fluorophenylimino)-3-dodecylthiazolidin-4-one], the pIC50 was 4.98.
